Experimental data published in patent US8497303B2, “Method to enhance aqueous solubility of poorly soluble actives” (Dow Global Technologies LLC, priority 2008, dated 2013).
Where two headings read alike, the source gives them in different places.

Legend:
[1] = for Percent Loading Using PEG 400: saturated solution, HPLC
Description: For comparison, solutions of PEG 400 and water are prepared in an analogous manner to those including the MPEG 350.
For comparison, solutions of PEG 400 and water are prepared in an analogous manner.

[2] = for Percent Loading Using MPEG 350: saturated solution, HPLC
Description: The solution is then stirred with a vortex mixer for approximately 1 to 2 minutes, then shaken with an automated shaker for about 45 minutes. […] The sample is then left overnight in a water bath at about 29° C.
The solution is stirred with a vortex mixer for approximately 1 to 2 minutes, then shaken with an automated shaker for about 45 minutes. […] The sample is left overnight in a water bath at about 30° C.
The solutions are then filtered through a syringe filter and the concentrations are characterized by HPLC. The percent water in the MPEG solutions varies from 0 to 20 percent.
The solution is then filtered through a syringe filter and the concentration is characterized by HPLC. The percent water in the MPEG solutions varies from 0 to 20 percent.

Amount solubilized by neat PEG 400 solution relative to neat MPEG 350 solution [1] | Percent Loading Using PEG 400 ([1]; 0 percent water in PEG 400) [%] | Percent Loading Using PEG 400 ([1]; 5 percent water in PEG 400) [%] | Percent Loading Using PEG 400 ([1]; 10 percent water in PEG 400) [%] | Percent Loading Using PEG 400 ([1]; 15 percent water in PEG 400) [%] | Percent Loading Using PEG 400 ([1]; 20 percent water in PEG 400) [%] | Maximum solubility for MPEG 350:water blends greater than that for PEG 400:water blends [2] [%] | Percent Loading Using MPEG 350 ([2]; 0 percent water in MPEG 350) [%] | Percent Loading Using MPEG 350 ([2]; 5 percent water in MPEG 350) [%] | Percent Loading Using MPEG 350 ([2]; 10 percent water in MPEG 350) [%] | Percent Loading Using MPEG 350 ([2]; 15 percent water in MPEG 350) [%] | Percent Loading Using MPEG 350 ([2]; 20 percent water in MPEG 350) [%] | Loading with MPEG:water blends relative to PEG:water blends ([2]; when water is added) | Solubility (maximum loading) in PEG 400 [1] [weight percent] | Increase in loading compared to the MPEG 350 solution containing no water ([2]; 95:5 MPEG 350:water vs MPEG 350 without water) [%] | More loading with 95:5 MPEG 350:water blend compared to the best PEG 400:water blend ([2]; 95:5 MPEG 350:water vs PEG 400:water blend with highest loading) [weight percent] | Appearance of solution in MPEG 350 ([2]; approximately 15.4 weight percent solution, left overnight in water bath at about 30° C.) | Amount of drug loading in MPEG 350 solution higher than in PEG 400 solution ([2]; neat MPEG 350 vs neat PEG 400) | Structure (SMILES)
slightly more | 16.82 | 20.62 | 21.78 | 22.12 | 21.59 | 10.6 | 16.20 | 21.93 | 23.62 | 24.47 | 24.01 | higher loading | – | – | – | – | – | CC(=O)Nc1ccc(O)cc1 [Acetaminophen]
– | 21.60 | 24.31 | 21.48 | 17.24 | 11.56 | – | – | – | – | – | – | – | 21.6±0.8 | – | – | – | – | CC(C)Cc1ccc(C(C)C(=O)O)cc1 (centres unmarked) [Ibuprofen, ibuprofen]
– | – | – | – | – | – | – | – | – | – | – | – | – | – | 24.4 | 29.2 | some suspended material | approximately 13.6% | COc1ccc2cc([C@H](C)C(=O)O)ccc2c1 [Naproxen, naproxen]
